Source: PubChem BioAssay (NCI)
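Step 1: Grow cells in 96-well plates. Step 2: Expose to compound for 48 hours at 5 concentrations. Step 3: Interpolate endpoints linearly; if unreached, use highest concentration. Abbreviation: GI50, concentration required for 50% inhibition of growth. Definition used: TGI = concentration required for complete inhibition of growth.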

Tests used:
Test in all cases: DTP human tumour cell line panel, 48 h
786-0 renal = system: 786-0 renal
A498 renal = system: A498 renal
COLO 205 colon = system: COLO 205 colon
KM12 colon = system: KM12 colon
LOX IMVI melanoma = system: LOX IMVI melanoma
MDA-MB-231 breast = system: MDA-MB-231 breast
MDA-MB-435 = system: MDA-MB-435
NCI-H460 lung = system: NCI-H460 lung
NCI-H522 lung = system: NCI-H522 lung
T-47D breast = system: T-47D breast

Cc1nn(CN2CCN(C)CC2)c(=S)n1/N=C/c1cccc2ccccc12
GI50 (786-0 renal): 21.3 µM
TGI (786-0 renal): 44.6 µM
GI50 (A498 renal): 16.7 µM
TGI (A498 renal): 34.7 µM
GI50 (COLO 205 colon): 10.8 µM
TGI (COLO 205 colon): 26.6 µM
GI50 (KM12 colon): 19.3 µM
TGI (KM12 colon): 41.4 µM
GI50 (LOX IMVI melanoma): 17.6 µM
TGI (LOX IMVI melanoma): 31.4 µM
GI50 (MDA-MB-231 breast): 19.3 µM
TGI (MDA-MB-231 breast): 44.4 µM
GI50 (MDA-MB-435): 18.6 µM
TGI (MDA-MB-435): 43 µM
GI50 (NCI-H460 lung): 20.3 µM
TGI (NCI-H460 lung): 41.6 µM
GI50 (NCI-H522 lung): 19 µM
TGI (NCI-H522 lung): 39.8 µM
GI50 (T-47D breast): 17.6 µM
TGI (T-47D breast): 48.2 µM

NCC(=O)NS(=O)(=O)OC[C@H]1O[C@@H](n2cnc3c(N)ncnc32)[C@H](O)[C@@H]1O
GI50 (786-0 renal): 1.77 µM
TGI (786-0 renal): 3.47 µM
GI50 (A498 renal): 1.6 µM
TGI (A498 renal): 3.21 µM
GI50 (COLO 205 colon): 2.27 µM
TGI (COLO 205 colon): 6.14 µM
GI50 (KM12 colon): 3.22 µM
TGI (KM12 colon): 14.4 µM
GI50 (LOX IMVI melanoma): 1.68 µM
TGI (LOX IMVI melanoma): 3.52 µM
GI50 (MDA-MB-231 breast): 0.526 µM
TGI (MDA-MB-231 breast): 2.62 µM
GI50 (MDA-MB-435): 1.84 µM
TGI (MDA-MB-435): 3.49 µM
GI50 (NCI-H460 lung): 3.23 µM
TGI (NCI-H460 lung): 10.1 µM
GI50 (NCI-H522 lung): 1.75 µM
TGI (NCI-H522 lung): 3.85 µM
GI50 (T-47D breast): 2.32 µM
TGI (T-47D breast): 9.21 µM

C[C@]12CC[C@H](O)CC1=CC[C@@H]1[C@@H]2CC[C@]2(C)C(c3cccnc3)=CC[C@@H]12
GI50 (786-0 renal): 5.18 µM
TGI (786-0 renal): > 100 µM
GI50 (A498 renal): > 27.8 µM
TGI (A498 renal): > 100 µM
GI50 (COLO 205 colon): > 100 µM
TGI (COLO 205 colon): > 100 µM
GI50 (KM12 colon): 76.3 µM
TGI (KM12 colon): > 100 µM
GI50 (LOX IMVI melanoma): > 100 µM
TGI (LOX IMVI melanoma): > 100 µM
GI50 (MDA-MB-231 breast): > 27.1 µM
TGI (MDA-MB-231 breast): > 100 µM
GI50 (MDA-MB-435): 12.2 µM
TGI (MDA-MB-435): > 100 µM
GI50 (NCI-H460 lung): > 100 µM
TGI (NCI-H460 lung): > 100 µM
GI50 (NCI-H522 lung): 10.1 µM
TGI (NCI-H522 lung): > 100 µM
GI50 (T-47D breast): > 100 µM
TGI (T-47D breast): > 100 µM

N#C/C(=C1C=C/C(=N/O)C(Br)=C/1)c1ccccc1
GI50 (786-0 renal): 3.19 µM
TGI (786-0 renal): 14.7 µM
GI50 (A498 renal): 2.57 µM
TGI (A498 renal): 16.7 µM
GI50 (COLO 205 colon): 6.89 µM
TGI (COLO 205 colon): 54.7 µM
GI50 (KM12 colon): 0.347 µM
TGI (KM12 colon): 1.42 µM
GI50 (LOX IMVI melanoma): 0.521 µM
TGI (LOX IMVI melanoma): 2.9 µM
GI50 (MDA-MB-231 breast): 2.27 µM
TGI (MDA-MB-231 breast): 6.73 µM
GI50 (MDA-MB-435): 0.495 µM
TGI (MDA-MB-435): 2.32 µM
GI50 (NCI-H460 lung): 2.89 µM
TGI (NCI-H460 lung): 8.8 µM
GI50 (NCI-H522 lung): 1.87 µM
TGI (NCI-H522 lung): 5.23 µM
GI50 (T-47D breast): 2.19 µM
TGI (T-47D breast): 20.6 µM

Cn1c(N2NC(=O)C(N=Nc3ccc(S(N)(=O)=O)cc3)C2=O)nc(-c2ccco2)c(C#N)c1=O (stereo not drawn)
GI50 (786-0 renal): > 50 µM
TGI (786-0 renal): > 50 µM
GI50 (A498 renal): > 50 µM
TGI (A498 renal): > 50 µM
GI50 (COLO 205 colon): 3.18 µM
TGI (COLO 205 colon): 11.8 µM
GI50 (KM12 colon): > 50 µM
TGI (KM12 colon): > 50 µM
GI50 (LOX IMVI melanoma): 8.08 µM
TGI (LOX IMVI melanoma): 18.7 µM
GI50 (MDA-MB-231 breast): 28.6 µM
TGI (MDA-MB-231 breast): > 50 µM
GI50 (MDA-MB-435): 32.3 µM
TGI (MDA-MB-435): > 50 µM
GI50 (NCI-H460 lung): > 50 µM
TGI (NCI-H460 lung): > 50 µM
GI50 (NCI-H522 lung): 5.42 µM
TGI (NCI-H522 lung): 26.5 µM
GI50 (T-47D breast): 7.58 µM
TGI (T-47D breast): 19.7 µM

Cc1ccc(-c2c3c([nH]c(=O)c2C#N)-c2cc(F)ccc2OC3)cc1
GI50 (786-0 renal): 64.4 µM
TGI (786-0 renal): > 100 µM
GI50 (A498 renal): > 100 µM
TGI (A498 renal): > 100 µM
GI50 (COLO 205 colon): > 100 µM
TGI (COLO 205 colon): > 100 µM
GI50 (KM12 colon): 36.1 µM
TGI (KM12 colon): > 100 µM
GI50 (LOX IMVI melanoma): > 100 µM
TGI (LOX IMVI melanoma): > 100 µM
GI50 (MDA-MB-231 breast): 34.8 µM
TGI (MDA-MB-231 breast): > 100 µM
GI50 (MDA-MB-435): 35.8 µM
TGI (MDA-MB-435): > 100 µM
GI50 (NCI-H460 lung): 53.4 µM
TGI (NCI-H460 lung): > 100 µM
GI50 (NCI-H522 lung): 19 µM
TGI (NCI-H522 lung): 59.2 µM
GI50 (T-47D breast): 80.4 µM
TGI (T-47D breast): > 100 µM

CCCCC/C(C=C(C#N)C#N)=C/c1ccccc1
GI50 (786-0 renal): 7.45 µM
TGI (786-0 renal): 21.6 µM
GI50 (A498 renal): 9.72 µM
TGI (A498 renal): 23.2 µM
GI50 (COLO 205 colon): 4.91 µM
TGI (COLO 205 colon): 16.3 µM
GI50 (KM12 colon): 3.37 µM
TGI (KM12 colon): 13.2 µM
GI50 (LOX IMVI melanoma): 2.17 µM
TGI (LOX IMVI melanoma): 5.47 µM
GI50 (MDA-MB-231 breast): 3.85 µM
TGI (MDA-MB-231 breast): 16.2 µM
GI50 (MDA-MB-435): 1.77 µM
TGI (MDA-MB-435): 4.11 µM
GI50 (NCI-H460 lung): 3.22 µM
TGI (NCI-H460 lung): 12.2 µM
GI50 (NCI-H522 lung): 4.5 µM
TGI (NCI-H522 lung): 19.7 µM
GI50 (T-47D breast): 4.93 µM
TGI (T-47D breast): 26.1 µM

COc1ccc(C2=NN(C(=O)c3cc(OC)c(OC)c(OC)c3)C(c3ccc(C#N)cc3)C2)cc1OC (stereo not drawn)
GI50 (786-0 renal): 2.14 µM
TGI (786-0 renal): > 48.8 µM
GI50 (A498 renal): 0.374 µM
TGI (A498 renal): 4.34 µM
GI50 (COLO 205 colon): 1.47 µM
TGI (COLO 205 colon): 4.03 µM
GI50 (KM12 colon): 1.16 µM
TGI (KM12 colon): > 27.3 µM
GI50 (LOX IMVI melanoma): 2.24 µM
TGI (LOX IMVI melanoma): 16.3 µM
GI50 (MDA-MB-231 breast): 2.86 µM
TGI (MDA-MB-231 breast): > 45.6 µM
GI50 (MDA-MB-435): 0.334 µM
TGI (MDA-MB-435): 1.24 µM
GI50 (NCI-H460 lung): 2.01 µM
TGI (NCI-H460 lung): > 100 µM
GI50 (NCI-H522 lung): 0.222 µM
TGI (NCI-H522 lung): 1.24 µM
GI50 (T-47D breast): 3.64 µM
TGI (T-47D breast): 97.6 µM

CC1=C(C(=O)Nc2ccc3[nH]ncc3c2)C(c2ccc3ccccc3c2)CC(=O)N1 (stereo not drawn)
GI50 (786-0 renal): 15.1 µM
TGI (786-0 renal): > 25 µM
GI50 (A498 renal): 4.22 µM
TGI (A498 renal): 22 µM
GI50 (COLO 205 colon): 9.96 µM
TGI (COLO 205 colon): > 21.2 µM
GI50 (KM12 colon): 17.8 µM
TGI (KM12 colon): > 25 µM
GI50 (LOX IMVI melanoma): 13.2 µM
TGI (LOX IMVI melanoma): > 25 µM
GI50 (MDA-MB-231 breast): 11.7 µM
TGI (MDA-MB-231 breast): > 25 µM
GI50 (MDA-MB-435): > 25 µM
TGI (MDA-MB-435): > 25 µM
GI50 (NCI-H460 lung): > 25 µM
TGI (NCI-H460 lung): > 25 µM
GI50 (NCI-H522 lung): 13.8 µM
TGI (NCI-H522 lung): > 25 µM
GI50 (T-47D breast): > 25 µM
TGI (T-47D breast): > 25 µM

COc1ccc2c(c1)c(-c1nc(-c3cn(C)c4ncccc34)cs1)cn2CCCN1CCCCC1
GI50 (786-0 renal): 1.59 µM
TGI (786-0 renal): 2.95 µM
GI50 (A498 renal): 2.4 µM
TGI (A498 renal): 6.22 µM
GI50 (KM12 colon): 1.78 µM
TGI (KM12 colon): 3.45 µM
GI50 (LOX IMVI melanoma): 1.65 µM
TGI (LOX IMVI melanoma): 3.09 µM
GI50 (MDA-MB-231 breast): 1.78 µM
TGI (MDA-MB-231 breast): 3.37 µM
GI50 (MDA-MB-435): 1.63 µM
TGI (MDA-MB-435): 3.03 µM
GI50 (NCI-H460 lung): 1.95 µM
TGI (NCI-H460 lung): 3.7 µM
GI50 (NCI-H522 lung): 1.68 µM
TGI (NCI-H522 lung): 3.37 µM
GI50 (T-47D breast): 1.83 µM
TGI (T-47D breast): 4.28 µM

CN(C)CCNc1cc(-c2ccccc2)nc2ccccc12
GI50 (786-0 renal): 6.87 µM
TGI (786-0 renal): 23.8 µM
GI50 (A498 renal): 2.01 µM
TGI (A498 renal): 13.6 µM
GI50 (COLO 205 colon): 2.92 µM
TGI (COLO 205 colon): 7.74 µM
GI50 (KM12 colon): 4.87 µM
TGI (KM12 colon): 27.4 µM
GI50 (LOX IMVI melanoma): 3.6 µM
TGI (LOX IMVI melanoma): 14.4 µM
GI50 (MDA-MB-231 breast): 7.45 µM
TGI (MDA-MB-231 breast): 32.5 µM
GI50 (MDA-MB-435): 6.12 µM
TGI (MDA-MB-435): 20.6 µM
GI50 (NCI-H460 lung): 3.5 µM
TGI (NCI-H460 lung): 12.8 µM
GI50 (NCI-H522 lung): 8.11 µM
TGI (NCI-H522 lung): 27.8 µM
GI50 (T-47D breast): 8.79 µM
TGI (T-47D breast): 37.2 µM

Cc1ccc2c(c1)C(=O)/C(=C/c1ncc([N+](=O)[O-])n1C)O2
GI50 (786-0 renal): 2.16 µM
TGI (786-0 renal): 5.31 µM
GI50 (A498 renal): 1.99 µM
TGI (A498 renal): 6.63 µM
GI50 (COLO 205 colon): 1.99 µM
TGI (COLO 205 colon): 5.09 µM
GI50 (KM12 colon): 1.67 µM
TGI (KM12 colon): 5.21 µM
GI50 (LOX IMVI melanoma): 0.404 µM
TGI (LOX IMVI melanoma): 1.23 µM
GI50 (MDA-MB-231 breast): 1.56 µM
TGI (MDA-MB-231 breast): 6.92 µM
GI50 (MDA-MB-435): 0.371 µM
TGI (MDA-MB-435): 1.88 µM
GI50 (NCI-H460 lung): 2.05 µM
TGI (NCI-H460 lung): 5.97 µM
GI50 (NCI-H522 lung): 1.5 µM
TGI (NCI-H522 lung): 3.38 µM
GI50 (T-47D breast): 20.4 µM
TGI (T-47D breast): 76.5 µM
